First: COc1cc(C)c(N)cc1C
Second: COc1ccc(CC(=O)c2ccc(OC)c(F)c2)cc1
The melting point of the first is lower: 75 to 76 °C for the first, 142 to 143 °C for the second.

First: c1ccc(-c2ccc(N(c3ccccc3)c3ccccc3)cc2)cc1
Second: COc1ccc(-c2ncc(NC(=O)OCc3ccccc3)c(=O)n2CC(=O)NC(Cc2ccccc2)C(=O)C(F)(F)F)cc1 (stereo not given)
The melting point of the first is lower: 117 to 118 °C for the first, 172 to 174 °C for the second.

First: CC(C)n1cnc2c(N[C@H](CO)c3ccccc3)nc(Cl)nc21
Second: COc1ccc(Nc2nc(N)nc3c2ncn3C2CC(F)C(CO)O2)cc1 (stereo not given)
The melting point of the first is lower: 150 to 152 °C for the first, 190 to 191 °C for the second.

Compared with `Cc1cc(-n2ncc(=O)[nH]c2=O)cc(Cl)c1C(C)(C#N)c1ccc(Cl)cc1` (stereo not given), `O=c1[nH]c2cc(Cl)cc(Cl)c2c(O)c1Sc1ccc(NS(=O)(=O)c2ccc(Cl)cc2)cc1` is higher in melting point: 227 °C for the first, 270 to 274 °C for the second.

Compared with `COc1ccc(Nc2ccc(OCc3ccccc3)cc2)c(CO)c1`, `COc1ccc(C2CSc3ccccc3NC2=O)cc1` (stereo not given) is higher in melting point: 100 to 101 °C for the first, 145 °C for the second.

Compared with `CCCCCNc1ccc(OC2CCN(C(C)=O)CC2)cc1`, `COCN1C(C)=NC(C)=C(C(=O)NCCCN2CCC(C(=O)OC)(c3ccccc3)CC2)C1c1ccc(F)c(F)c1` (stereo not given) is lower in melting point: 69 to 71 °C for the first, 53 to 57 °C for the second.

First: CCOC(=O)[C@@H](N)Cc1ccc([N+](=O)[O-])cc1I
Second: CCOC(=O)C(=CNc1cc([N+](=O)[O-])ccc1O)C(=O)c1cc(F)c(F)c(F)c1F
The melting point of the first is lower: 33 to 34 °C for the first, 222 °C for the second.

Compared with `CC(C)(CO)NCCCn1ccnc1`, `CC(=O)Nc1nc(CCCCl)cs1` is higher in melting point: 81 to 85 °C for the first, 110 to 112 °C for the second.

First: O=C(O)C(=O)c1ccc(OC/C=C/c2ccccc2)cc1
Second: CC(C)(CS(=O)(=O)c1ccc(Oc2ccc(Cl)cn2)cc1)C(=O)NO
The melting point of the first is lower: 103 to 105 °C for the first, 116 to 117 °C for the second.

First: CC1(C)OC(c2ccc(S(N)(=O)=O)c(F)c2)=C(c2cc(F)cc(F)c2)C1=S
Second: CC1(C)C=Cc2c(ccc3c2C(=O)C(Br)=C(O)C3=O)O1
The melting point of the first is lower: 153 to 154 °C for the first, 202 to 205 °C for the second.

First: CCCCCCCCCCCCCCCCCCNP1OCC2(CO1)COP(NCCCCCCCCCCCCCCCCCC)OC2 (stereo not given)
Second: CCCCCCCCCCCCCCCCSCC(CO)NC(=O)OC(C)(C)C (stereo not given)
The melting point of the first is higher: 67 to 70 °C for the first, 48 to 50 °C for the second.

First: O=c1cc2c(nn1-c1ccc(Cl)cc1F)CCCC2
Second: O=C1c2cc(Cl)ccc2-n2cnc(-c3noc(CCl)n3)c2[C@@H]2CCN12
The melting point of the first is lower: 104 to 108 °C for the first, 238 to 241 °C for the second.

First: O=[N+]([O-])c1cnc(Cl)nc1NCCO
Second: CN(C)C(=Cc1ccccc1[N+](=O)[O-])C(=O)CBr
The melting point of the first is lower: 123 to 125 °C for the first, 125 to 127 °C for the second.

First: CC(C)c1cccc(C(C)C)c1NC(=O)CNC(c1ccccc1)c1ccc(N(C)C)cc1 (stereo not given)
Second: Cc1c(Cc2cccc(C(F)(F)F)c2)oc2cccc(-c3cccc(C(=O)O)c3)c12
The melting point of the first is lower: 116 to 117 °C for the first, 169 to 170 °C for the second.

First: OCc1coc(-c2cccs2)n1
Second: O=C(NCCc1cccs1)C1CC2C=CC1C2 (stereo not given)
The melting point of the first is higher: 98 to 99 °C for the first, 71 to 72 °C for the second.

First: CCN1C(=O)CN=C(c2ccccc2F)c2cc(C(C)=O)ccc21
Second: O=C1C(CCO)Oc2ccc(F)cc2N1Cc1cccc([N+](=O)[O-])c1 (stereo not given)
The melting point of the first is higher: 154 to 156 °C for the first, 110 to 112 °C for the second.

First: O=S(=O)(CCCCCOc1ccc(C2=C(c3ccccc3)CCCc3cc(OC4CCCCO4)ccc32)cc1)CCCC(F)(F)C(F)(F)F (stereo not given)
Second: O=S(=O)(Nc1ccc2c(OCc3cccc(-c4cc(Cl)cc(Cl)c4)c3)cccc2c1)C(F)(F)F
The melting point of the first is lower: 107 to 110 °C for the first, 142 to 143 °C for the second.

First: CC1CCc2c(C#N)c(F)cc3c(=O)c(C(=O)O)cn1c23 (stereo not given)
Second: CN1CC[C@@H](c2c(O)cc(O)c3c(=O)cc(-c4ccc([N+](=O)[O-])cc4)oc23)[C@@H]1CO
The melting point of the first is higher: 300 °C for the first, 275 to 277 °C for the second.

Compared with `CCc1cccc(C)c1CNc1nc(C(=O)O)cn2c(C)c(C)nc12`, `Cc1cc2c(C)c(O)c(O)c(C(=O)O)c2cc1Cc1ccccc1` is lower in melting point: 230 °C for the first, 179 to 180 °C for the second.

Compared with `CC(C)C(=O)N1CCNC1=Nc1ccc(Cl)cc1Cl`, `CCOC(=O)c1cc2c3n(ccc-2n1)CC=N3` is higher in melting point: 147 to 148 °C for the first, 154 to 156 °C for the second.

Compared with `CCOC(=O)c1c(CCCCn2cncn2)nc2sc3c(c2c1-c1ccc(OC)c(OC)c1)CCN(C(=O)c1ccc(Cl)cc1)C3`, `C=CCOc1cc(-c2cc(=O)c3c(OCC=C)c(CC=C)c(OCC=C)cc3o2)ccc1OC` is lower in melting point: 165 to 166 °C for the first, 107 °C for the second.

First: Cc1ccc2c(c1)C=Cc1sc(C)nc1C2c1cn(C)c(=O)[nH]c1=S (stereo not given)
Second: Cc1nc2cccc(S(N)(=O)=O)c2s1
The melting point of the first is higher: 235 to 237 °C for the first, 223 to 224 °C for the second.

First: CC(C)(C)c1cc(CCc2ccccc2NC(=O)NC2CCC(C(C)(C)C)CC2)cc(C(C)(C)C)c1O (stereo not given)
Second: CC(C)=CC(=O)Nc1ccc(F)cc1CCN1CCN(c2nsc3ccccc23)CC1
The melting point of the first is higher: 206 to 208 °C for the first, 175 °C for the second.

First: C=C1CC2C(CCC3(C)C2CCC3(OC(C)=O)C(C)=O)C2(C)CCC(=O)C=C12 (stereo not given)
Second: C#Cc1ccc(C2CCC(C3CCC(CCC)CC3)CC2)cc1 (stereo not given)
The melting point of the first is higher: 234 to 236 °C for the first, 71 °C for the second.

Going from `COC(=O)c1cc(I)c(F)c(I)c1Cl` to `CSc1ncnn1C[C@]1(c2ccc(F)cc2)O[C@@H]1c1cccc(Cl)c1F` (relative stereo), the melting point falls from 155 °C to 88 °C.
